Assay results: patent US20250185696A1, “NOVEL MENAQUINONE-N (VITAMIN-K2-7) SUPPLEMENTATION FOR LIVESTOCK AND POULTRY” (SYNERGIA LIFE SCIENCES PVT LTD., priority 2022, published 2025)
Several values for one entry are separate records, joined by “and”; a condition that tells them apart may be missing. Identical values can stand only once.

Columns and labels:
[1] = system: Vencobb 400 breed of broiler chicken; assay: Pilot study in chicks: body weight; format: in vivo; details: Treatment group
Protocol: (§1) A pilot study in 5605 chicks to evaluate the role of Menaquinone-n in bird weight increase, FCR and cost efficiency. The chicks were divided into Treatment group (N=2839) and Control group (N=2766). Menaquinone-7 (provided by Synergia Life Sciences as a 2000 ppm water dispersible powder) was administered to the treatment group for 30 days as per dosage outlined in Table 1. The birds were acclimatized for initial 4 days. Menaquinone-7 in divided doses was started on day 5 till day 30 and they were vaccinated on day 6.
(§2) 5605 day old chicks were selected for the study. They were divided into Treatment group consisting of 2839 chicks, while the remaining 2766 were included in the Control group. The chicks were acclimatized for initial 4 days.
(§3) Menaquinone-7 (provided by Synergia Life Sciences as a 2000 ppm water dispersible powder) was administered daily […] to the treatment group in daily dosages as outlined in Table 1. Menaquinone-7 in divided doses was started on day 5 till day 30 and the chicks were vaccinated on day 6. The body weight of the chicks was determined, and mortality rate observed on Day 11, Day 16, Day 22 and Day 28.
(§4) A poultry farm with two open shades was selected for the study. Vencobb 400 breed of broiler chicken were selected for the study. Vencobb 400 breed was selected because at breeder level it is an early maturing bird with early peak, sustained production and better feed efficiency. Vencobb 400 is known for its proven adaptability to varied climatic conditions and husbandry practices.
(§5) The chicks were housed in poultry sheds with tin rooting and open shade sides. Water was fed ad libitum through bell water feeders. The litter consisted of rice husk before housing the birds the cages were sanitized with hypo chloride, The chicks were provided with feed supplied from Godrej Tyson Foods, ad libitum.
(§6) Menaquinone 7 supplementation was in a drinking water as in Table 1. Water was made up to the required level as required daily.
Body weight was estimated by catching 5 birds in each group and determining the total weight and reporting the average at the intervals recorded in Table 2. At the end of treatment, after catching the total catching weight was recorded and the average weight determined.

[2] = system: Vencobb 400 breed of broiler chicken; assay: Pilot study in chicks: cage side observations; format: in vivo
Protocol: Cage side observations like daily life behavior patterns, odor of litter etc. were recorded.

[3] = system: Vencobb 400 breed of broiler chicken; assay: Pilot study in chicks: mortality; format: in vivo; details: for Cumulative Mortality: Treatment group (N=2839)
Protocol: as §1, §2, §3, §4, §5, §6

Birds = assay: Comparative study of control and treated group (Table 4): mortality, weight, FCR; format: in vivo; details: Treated group, 2000 birds, K2 supplementation 15 g of 2000 ppm
Protocol: Feed conversion ratio was calculated by taking the total amount of feed consumed by the bird and dividing it by the amount of weight gained.

[4] = regular MK-7 intake; cited from earlier work

Compound: CC(C)=CCC/C(C)=C/CC/C(C)=C/CC/C(C)=C/CC/C(C)=C/CC/C(C)=C/CC/C(C)=C/CC1=C(C)C(=O)c2ccccc2C1=O [Menaquinone-7]
- Average weight (kg) per chick ([1]; Day 0 (before dosing; dosing day 5 to day 30 in drinking water)): 0.05 kg
- Average weight (kg) per chick ([1]; Day 5 (start of dosing)): 0.05 kg
- Average weight (kg) per chick ([1]; Day 11): 0.622 kg
- Average weight (kg) per chick ([1]; Day 16): 0.966 kg
- Average weight (kg) per chick ([1]; Day 22): 1.36 kg
- Average weight (kg) per chick ([1]; Day 28): 2 kg and 2.0 kg
- Ammonia odor in the litter (cage side observation) ([2]; Treatment group as compared to the control group): reduced ammonia odor
- Stress due to heat, vaccination and crowding (cage side observation) ([2]; Treatment group in comparison to the control group): appeared comfortable
- Cumulative Mortality ([3]; Day 0): 0
- Cumulative Mortality ([3]; Day 5 (start of dosing)): 30
- Cumulative Mortality ([3]; Day 11): 61
- Cumulative Mortality ([3]; Day 16): 87
- Cumulative Mortality ([3]; Day 22): 95
- Cumulative Mortality ([3]; Day 28): 100
- Overall reduction in mortality rate ([3]; Treatment group versus control group, end of 28th day): over 4%
- Mortality rate/day ([3]; Treatment group, Day 5 (start of dosing)): 7.5 per day
- Mortality rate/day ([3]; Treatment group, Day 11): 2.8 per day
- Mortality rate/day ([3]; Treatment group, Day 16): 5.2 per day
- Mortality rate/day ([3]; Treatment group, Day 22): 1.3 per day
- Mortality rate/day ([3]; Treatment group, Day 28): 0.8 per day
- Mortality % (overall mortality) ([3]; Treatment group, end of 28th day): 3.52%
- Avg wt./bird (Birds): 2.1560 kg
- FCR (Birds): 0.728
- Mortality (Birds): 1.8%
- Blood levels, times higher than when not regularly taken [4]: 7-8 times
